Reference: patent US10428044B2, “3-amino-1,5,6,7-tetrahydro-4H-indol-4-ones” (Bayer Pharma Aktiengesellschaft, priority 2014, dated 2019)

Biological target: (recombinant) catalytic domain of human Bub1 (amino acids 704-1085) (Homo sapiens (Human), UniProt O43683)
Experiment: Bub1 kinase assay (TR-FRET)
Format: biochemical
Details: ATP 10 μM final, peptide substrate 1 μM final, 60 min at 22° C., read-out: Biological Assay: Bub1 kinase assay median IC50
Protocol: Examples were tested in selected biological assays one or more times. When tested more than once, data are reported as either average values or as median values, wherein • the average value, also referred to as the arithmetic mean value, represents the sum of the values obtained divided by the number of times tested, and • the median value represents the middle number of the group of values when ranked in ascending or descending order. If the number of values in the data set is odd, the median is the middle value. If the number of values in the data set is even, the median is the arithmetic mean of the two middle values.
To this end, 100-fold concentrated compound solutions (in DMSO) were previously prepared by serial dilution (1:3.4) of 2 mM stocks in a clear low volume 384-well source microtiter plate (Greiner Bio-One, Frickenhausen, Germany), from which 50 nl of compounds were transferred into a black low volume test microtiter plate from the same supplier. […] The resulting mixture (5 μL final volume) was incubated at 22° C. during 60 min., and the reaction was stopped by the addition of 5 μL of an aqueous EDTA-solution (50 mM EDTA, in 100 mM HEPES pH 7.5 and 0.2% (w/v) bovine serum albumin) which also contained the TR-FRET detection reagents (0.2 μM streptavidin-XL665 [Cisbio Bioassays, Codolet, France] and 1 nM anti-phosho-Serine antibody [Merck Millipore, cat. #35-002] and 0.4 nM LANCE EU-W1024 labeled anti-mouse IgG antibody [Perkin-Elmer, product no. AD0077, alternatively a Terbium-cryptate-labeled anti-mouse IgG antibody from Cisbio Bioassays can be used]). The stopped reaction mixture was further incubated 1 h at 22° C. in order to allow the formation of complexes between peptides and detection reagents. Subsequently, the amount of product was evaluated by measurement of the resonance energy transfer from the Eu-chelate-antibody complex recognizing the Phosphoserine residue to the streptavidin-XL665 bound to the biotin moiety of the peptide. […] The data were normalised using two sets of control wells for high- (=enzyme reaction without inhibitor=0%=Minimum inhibition) and low- (=all assay components without enzyme=100%=Maximum inhibition) Bub1 activity. IC50 values were calculated by fitting the normalized inhibition data to a 4-parameter logistic equation (Minimum, Maximum, IC50, Hill; Y=Max+(Min−Max)/(1+(X/IC50)Hill)).

Sequence of (recombinant) catalytic domain of human Bub1 (amino acids 704-1085) (O43683 704-1085): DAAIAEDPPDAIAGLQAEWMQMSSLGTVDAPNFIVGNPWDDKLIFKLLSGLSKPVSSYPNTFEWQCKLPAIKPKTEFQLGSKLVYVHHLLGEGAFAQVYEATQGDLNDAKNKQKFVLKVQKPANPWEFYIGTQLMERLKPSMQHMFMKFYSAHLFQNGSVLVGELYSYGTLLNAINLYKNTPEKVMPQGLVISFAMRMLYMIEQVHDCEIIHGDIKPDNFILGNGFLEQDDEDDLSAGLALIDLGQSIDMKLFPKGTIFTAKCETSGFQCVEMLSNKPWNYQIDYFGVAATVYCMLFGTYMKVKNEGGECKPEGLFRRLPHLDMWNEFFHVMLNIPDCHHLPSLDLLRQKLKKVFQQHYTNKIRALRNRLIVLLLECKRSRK

| SMILES | IC50 |
| --- | --- |
| CC(C)(C)NC(=O)Nc1cc(-c2[nH]c3c(c2Nc2ccccc2)C(=O)CCC3)ccn1 [Example 380, 1-tert-butyl-3-{4-[4-oxo-3-(phenylamino)-4,5,6,7-tetrahydro-1H-indol-2-yl]pyridin-2-yl}urea] | 0.437 µM |
| CC1(C)CC(=O)c2c([nH]c(-c3ccncc3)c2Nc2ccccc2)C1O (stereo not shown) [Example 445, 7-hydroxy-6,6-dimethyl-3-(phenylamino)-2-(pyridin-4-yl)-1,5,6,7-tetrahydro-4H-indol-4-one] | 0.01 µM |
| O=C1CCCc2[nH]c(-c3ccnc(N(C(=O)C4CC4)C(=O)C4CC4)c3)c(Nc3cccc(F)c3)c21 [Example 162, N-(cyclopropylcarbonyl)-N-(4-{3-[(3-fluorophenyl)amino]-4-oxo-4,5,6,7-tetrahydro-1H-indol-2-yl}pyridin-2-yl)cyclopropanecarboxamide] | 0.0856 µM |
| CC1(C)CC(=O)c2c([nH]c(-c3ccncc3Br)c2Nc2ccccc2)C1 [Example 199, 2-(3-bromopyridin-4-yl)-6,6-dimethyl-3-(phenylamino)-1,5,6,7-tetrahydro-4H-indol-4-one] | 0.012 µM |
| O=C(COCC(F)(F)F)Nc1cc(-c2[nH]c3c(c2Nc2ccccc2)C(=O)CCC3)ccn1 [Example 502, N-{4-[4-oxo-3-(phenylamino)-4,5,6,7-tetrahydro-1H-indol-2-yl]pyridin-2-yl}-2-(2,2,2-trifluoroethoxy)acetamide] | 0.0144 µM |
| CC(F)C(=O)Nc1cc(-c2[nH]c3c(c2Nc2ccccc2)C(=O)CCC3)ccn1 (stereo not shown) [Example 241, 2-fluoro-N-{4-[4-oxo-3-(phenylamino)-4,5,6,7-tetrahydro-1H-indol-2-yl]pyridin-2-yl}propanamide] | 0.0407 µM |
| CC(C)(C#N)C(=O)Nc1cc(-c2[nH]c3c(c2Nc2ccccc2)C(=O)CCC3)ccn1 [Example 245, 2-cyano-2-methyl-N-{4-[4-oxo-3-(phenylamino)-4,5,6,7-tetrahydro-1H-indol-2-yl]pyridin-2-yl}propanamide] | 0.0844 µM |
| Cn1ccc(C(=O)Nc2cc(-c3[nH]c4c(c3Nc3ccccc3)C(=O)CCC4)ccn2)n1 [Example 454, 1-methyl-N-{4-[4-oxo-3-(phenylamino)-4,5,6,7-tetrahydro-1H-indol-2-yl]pyridin-2-yl}-1H-pyrazole-3-carboxamide] | 0.00733 µM |
| CCOC(C)(C)C(=O)Nc1cc(-c2[nH]c3c(c2Nc2ccccc2)C(=O)CCC3)ccn1 [Example 328] | 0.524 µM |
| Cc1ccc(Nc2c(-c3ccncc3)[nH]c3c2C(=O)CC(C)(C)C3)cc1 [Example 54, 6,6-dimethyl-3-[(4-methylphenyl)amino]-2-(pyridin-4-yl)-1,5,6,7-tetrahydro-4H-indol-4-one] | 0.148 µM |
| CC1(C)CC(=O)c2c([nH]c(-c3ccncc3)c2Nc2ncccc2CO)C1 [Example 511, 3-{[3-(hydroxymethyl)pyridin-2-yl]amino}-6,6-dimethyl-2-(pyridin-4-yl)-1,5,6,7-tetrahydro-4H-indol-4-one] | 0.0652 µM |
| CCc1ccc(Nc2c(-c3ccncc3)[nH]c3c2C(=O)CC(C)(C)C3)cc1 [Example 83, 3-[(4-ethylphenyl)amino]-6,6-dimethyl-2-(pyridin-4-yl)-1,5,6,7-tetrahydro-4H-indol-4-one] | 0.293 µM |
| CC(C)C(=O)Nc1cc(-c2[nH]c3c(c2Nc2ccccc2)C(=O)CC(C)(C)C3)ccn1 [Example 132, N-{4-[6,6-dimethyl-4-oxo-3-(phenylamino)-4,5,6,7-tetrahydro-1H-indol-2-yl]pyridin-2-yl}-2-methylpropanamide] | 0.0502 µM |
| O=C1CC(c2ccccc2)Cc2[nH]c(-c3ccncc3)c(Nc3ccccc3)c21 (stereo not shown) [Example 8, 6-Phenyl-3-phenylamino-2-(pyridin-4-yl)-1,5,6,7-tetrahydroindol-4-one] | 0.0221 µM |
| CC1(C)CC(=O)c2c([nH]c(-c3ccnc(NCCC(F)(F)F)c3)c2Nc2ccccc2)C1 [Example 362, 6,6-dimethyl-3-(phenylamino)-2-{2-[(3,3,3-trifluoropropyl)amino]pyridin-4-yl}-1,5,6,7-tetrahydro-4H-indol-4-one] | 0.392 µM |
| CC1(C)CC(=O)c2c([nH]c(-c3ccncc3)c2Nc2cccc(F)c2CO)C1 [Example 486, 3-{[3-fluoro-2-(hydroxymethyl)phenyl]amino}-6,6-dimethyl-2-(pyridin-4-yl)-1,5,6,7-tetrahydro-4H-indol-4-one] | 0.00345 µM |

| SMILES | IC50 |
| --- | --- |
| O=C1CCCc2[nH]c(-c3ccnc(NC[C@H](O)CO)c3)c(Nc3ccccc3)c21 [Example 371, 2 2-(2-{[(2S)-2,3-dihydroxypropyl]amino}pyridin-4-yl)-3-(phenylamino)-1,5,6,7-tetrahydro-4H-indol-4-one] | 1.01 µM |
| CN[C@@H](C)C(=O)Nc1cc(-c2[nH]c3c(c2Nc2ccccc2)C(=O)CCC3)ccn1 [Example 304, N^2-methyl-N-{4-[4-oxo-3-(phenylamino)-4,5,6,7-tetrahydro-1H-indol-2-yl]pyridin-2-yl}-L-alaninamide] | 0.174 µM |
| CCCn1c2c(c(Nc3ccccc3)c1-c1ccncc1)C(=O)CC(C)(C)C2 [Example 182, 6,6-dimethyl-3-(phenylamino)-1-propyl-2-(pyridin-4-yl)-1,5,6,7-tetrahydro-4H-indol-4-one] | 0.0689 µM |
| CC1(C)CC(=O)c2c([nH]c(-c3ccncc3OCC3CC3)c2Nc2ccccc2)C1 [Example 411, 2-[3-(cyclopropylmethoxy)pyridin-4-yl]-6,6-dimethyl-3-(phenylamino)-1,5,6,7-tetrahydro-4H-indol-4-one] | 0.00686 µM |
| COc1ccc(Nc2c(-c3ccncc3)[nH]c3c2C(=O)CC(C)(C)C3)cc1OC [Example 58, 3-[(3,4-dimethoxyphenyl)amino]-6,6-dimethyl-2-(pyridin-4-yl)-1,5,6,7-tetrahydro-4H-indol-4-one] | 20 µM |
| CN(CCC(=O)Nc1cc(-c2[nH]c3c(c2Nc2ccccc2)C(=O)CCC3)ccn1)C(=O)OC(C)(C)C [Example 299, tert-butyl methyl[3-oxo-3-({4-[4-oxo-3-(phenylamino)-4,5,6,7-tetrahydro-1H-indol-2-yl]pyridin-2-yl}amino)propyl]carbamate] | 0.0743 µM |
| Cc1cc(CC(=O)Nc2cc(-c3[nH]c4c(c3Nc3ccccc3)C(=O)CCC4)ccn2)on1 [Example 289, 2-(3-methyl-1,2-oxazol-5-yl)-N-{4-[4-oxo-3-(phenylamino)-4,5,6,7-tetrahydro-1H-indol-2-yl]pyridin-2-yl}acetamide] | 0.0159 µM |
| CC1(C)CC(=O)c2c([nH]c(-c3ccncc3)c2Nc2ccc(F)c(OC(F)(F)F)c2)C1 [Example 148, 3-{[4-fluoro-3-(trifluoromethoxy)phenyl]amino}-6,6-dimethyl-2-(pyridin-4-yl)-1,5,6,7-tetrahydro-4H-indol-4-one] | 0.479 µM |
| CC1(C)CC(=O)c2c([nH]c(-c3cc[n+](CC(F)(F)F)cc3)c2Nc2ccccc2)C1 [Example 190, 4-[6,6-dimethyl-4-oxo-3-(phenylamino)-4,5,6,7-tetrahydro-1H-indol-2-yl]-1-(2,2,2-trifluoroethyl)pyridinium trifluoromethanesulfonate] | 0.475 µM |
| O=C1CCCc2[nH]c(-c3ccnc(NCc4cscn4)c3)c(Nc3ccccc3)c21 [Example 501, 3-(phenylamino)-2-{2-[(1,3-thiazol-4-ylmethyl)amino]pyridin-4-yl}-1,5,6,7-tetrahydro-4H-indol-4-one] | 0.0967 µM |
| CC1(C)CC(=O)c2c([nH]c(-c3ccnc(O)c3)c2Nc2ccccc2)C1 [Example 469, 2-(2-hydroxypyridin-4-yl)-6,6-dimethyl-3-(phenylamino)-1,5,6,7-tetrahydro-4H-indol-4-one] | 2.16 µM |
| CCOc1cnccc1-c1[nH]c2c(c1Nc1ccccc1)C(=O)CC(C)(C)C2 [Example 404, 2-(3-ethoxypyridin-4-yl)-6,6-dimethyl-3-(phenylamino)-1,5,6,7-tetrahydro-4H-indol-4-one] | 0.0117 µM |
| O=C1CCCc2[nH]c(-c3ccnc(NC(=O)C4CNC4)c3)c(Nc3ccccc3)c21 [Example 296, N-{4-[4-oxo-3-(phenylamino)-4,5,6,7-tetrahydro-1H-indol-2-yl]pyridin-2-yl}azetidine-3-carboxamide] | 3.45 µM |
| O=C1CCCc2[nH]c(-c3ccnc(NCCCc4ccccc4)c3)c(Nc3ccccc3)c21 [Example 490, 3-(phenylamino)-2-{2-[(3-phenylpropyl)amino]pyridin-4-yl}-1,5,6,7-tetrahydro-4H-indol-4-one] | 2.56 µM |
| CC(=O)Nc1cc(-c2[nH]c3c(c2Nc2ccc(F)c(F)c2)C(=O)CC(C(C)C)C3)ccn1 (stereo not shown) [Example 323, N-{4-[3-[(3,4-difluorophenyl)amino]-4-oxo-6-(propan-2-yl)-4,5,6,7-tetrahydro-1H-indol-2-yl]pyridin-2-yl}acetamide] | 0.0216 µM |
